# Entries after “also recorded” stand apart in the source; their conditions may differ.
# Columns and labels:
# [1] = system: vascular SMC membranes (plasma membrane-enriched fraction); assay: Biosensor (surface plasmon resonance, BIAcore L1 chip) binding of Aβ to vascular SMC membranes; set-up: species or system rat; KA1 (equilibrium association constant for high affinity binding component) / KA2 (equilibrium association constant of low-affinity binding component): unit not given here; details: for KA1 (equilibrium association constant for high affinity binding component) / KA2 (equilibrium association constant of low-affinity binding component): competing reaction model; for binding to plasma membrane-enriched fraction from vascular smooth muscle cells: FIG. 6
# Procedure: (§1) Vascular SMCs were plated at a density of 10^4 cells/well in a 96-well plate, or at a density of 10^6 cells/75 cm^2 cell culture flask (Nunc, Denmark) in 20 ml culture medium, and grown to 80% confluence, after which the medium was removed and replaced with fresh, serum-free medium with or without […] lovastatin.
# (§2) A crude plasma membrane preparation was prepared from vascular SMCs by differential centrifugation (Hubbard et al., 1983). Cells were scraped off 10×75 cm^2 flasks using a cell scraper, and centrifuged in DMEM at 3,000 rpm in a Beckman Coulter Allegra 21R centrifuge at 4° C. for 3 min. The pellet was then washed with phosphate-buffered saline (PBS), added to 10 ml of STM buffer (0.25 M sucrose/5 mM Tris-HCl, pH 7.4/1.0 mM MgCl2), and homogenized on ice using 10 up and down strokes in a 40 ml Dounce-type glass homogenizer with a loose-fitting pestle. The homogenate was centrifuged at 1,100 rpm for 5 min. The supernatant fraction was saved and the pellet rehomogenized in 5 ml of STM buffer. The suspension was again centrifuged, and the first and second supernatant fractions combined, then centrifuged at 40,000 rpm for 2 h (Beckman L8-M Ultracentrifuge, 70 Ti rotor, no brake) and the resulting crude plasma membrane fraction resuspended in 1.0 ml of 0.02 M sodium phosphate buffer, pH 7.4. Total membrane cholesterol was determined using the Amplex Red cholesterol assay kit (Molecular Probes, Eugene, Oreg., USA). The protein content of the membrane preparations was determined using the bicinchoninic acid (BCA) assay using bovine serum albumin as standard.
# (§3) Binding experiments were carried out with a BIAcore X analytical system (Biacore, Uppsala, Sweden) using an L1 sensor chip (Biacore), as supplied by the manufacturer. It will be appreciated that other types of biosensor may also be used, preferably provided that the chip surface is such that the bound lipid material is able to retain a bilayer or monolayer structure. The running buffer used for all experiments was 0.02 M sodium phosphate buffer, pH 6.8 (phosphate buffer). The washing solution was 40 mM N-octyl β-D-glucopyranoside. The regeneration solution was 10 mM sodium hydroxide. All solutions were freshly prepared, degassed and filtered through a […] filter. The operating temperature was 25° C.
# (§4) The alkyl surface of the L1 chip was cleaned by an injection of 25 μl of non-ionic 40 mM octyl glucoside at a flow rate of 5 μl/min. SUV (100 μl) or vascular SMC membranes (100 μl containing 0.33 mg protein) were then immediately applied to the chip surface at a low rate of 5 μl/min. To remove any multilamellar structures from the synthetic lipid surface, 30 μL of 10 mM sodium hydroxide was injected at a flow rate of […], resulting in a stable baseline corresponding to the successful formation of an immobilized layer of SUVs.
# (§5) Peptide solutions were prepared at concentrations ranging from 0.5 to 10 μM. The solutions were injected over the lipid surface at a flow rate of 5 μl/min for 20 min. The peptide solution was then replaced by phosphate buffer and the peptide-membrane complex allowed to dissociate. The removal of the bound peptide and regeneration of the L1 chip surface, without removal of the synthetic lipid or vascular SMC membrane layer, was achieved by an injection of sodium hydroxide (30 μl, 10 mM) at a flow rate of 50 μl/min.
# vascular SMCs [2] = assay: MTS assay of cytotoxicity of Aβ peptides against vascular smooth muscle cells; assay type: cell-based, rat; details: 24 h, FIG. 1; for toxicity against vascular SMCs (MTS assay): peptide 10 μM; for toxicity against vascular SMCs after aging the peptide (MTS assay): peptide aged 5 days, 10 μM
# Procedure: (§6) Aβ 1-42, Aβ 1-40, Aβ 1-28, Aβ 17-42 and Aβ 29-42 were dissolved in dimethyl sulfoxide (DMSO) at a concentration of 2 mM. The peptide solutions were then sonicated (42 kHz) for 5 minutes, and centrifuged at 5,000 rpm for 1 minute at room temperature using a Hermle Z160M bench microfuge. Solubilised peptides were immediately snap-frozen and mixed on a vortex mixer for 15 seconds. The peptides were then diluted into DMEM for cell culture experiments, or in 0.02 M sodium phosphate buffer, pH 6.8 for biosensor experiments, to give a final concentration of 10 μM.
# as §1
# The F3-(4,5-dimethylthiazol-2-yl)-5-(3-carboxymethoxyphenyl)-2(4-sulfophenyl)-2H-tetrazolium (MTS) reagent solution was added to the culture medium at a concentration of 10% (by volume).
# To measure Aβ toxicity against vascular SMCs, cultures of cells were treated with Aβ peptides and analogues (10 μM) and the amount of toxicity determined using the MTS assay (Cory et al., 1991). […] Aging the peptides by incubation for 5 days caused a significant increase in toxicity. Previous studies (e.g., Pike et al., 1991) have shown that the aggregation of the Aβ into fibrils may be important for the generation of toxic species. The present results support this conclusion. […] In general, the amount of Aβ toxicity approximately correlated with the proportion of fibrillar species.
# [3] = system: synthetic lipid mixtures (cholesterol: phospholipid SUV); assay: Biosensor (surface plasmon resonance, BIAcore L1 chip) binding of Aβ to synthetic lipid mixtures; set-up: KA1 (equilibrium association constant for high affinity binding component) / KA2 (equilibrium association constant of low-affinity binding component): unit not given here; details: for KA1 (equilibrium association constant for high affinity binding component) / KA2 (equilibrium association constant of low-affinity binding component): competing reaction model; for extent of binding to the synthetic lipid mixture: 10 μM, cholesterol: phospholipid 60:40, compared with Aβ 1-28, FIG. 4
# Procedure: Small 100 nm unilamellar vesicles (SUV), containing DMPC, DMPG, DMPS and DMPE, and cholesterol, were prepared in 0.02 M phosphate buffer (pH 6.8) by sonication and extraction. Briefly, 1.5 mg of total lipid was dissolved in 1.5 ml of CHCl3: MeOH (3:1, v/v). Aliquots (408 μl) were removed and evaporated under a stream of nitrogen, and the lipids further dried in vacuo overnight. The lipids were then resuspended in 600 μl of 0.02 M sodium phosphate buffer, pH 6.8. The resulting lipid dispersion was sonicated in a bath type sonicator until clear, and then extruded 17 times through 100 nm pore diameter polycarbonate filters using Liposofast apparatus (Avestin, Ottawa, Canada) to obtain 100 nm […]. The mixed lipid vesicles contained 80% (w/w), 60% (w/w), 40% (w/w), 30% (w/w) or 0% (w/w) cholesterol. The remaining lipid comprised a mixture of DMPC: DMPE: DMPS: DMPG in a ratio of 75:20:2.5:2.5 (by weight).
# as §3, §4, §5
# The amount of binding in response units (RU) was fitted by a simple one-to-one Langmuir reaction model (Morton et al., 1995):
# or a competing reaction model (Karlsson and Falt, 1997):
# using BIAevaluation 3.0 software (Biacore). The data obtained from five different binding experiments performed at five different concentrations of peptide were fitted globally to obtain the equilibrium association constant (KA). The accuracy of each fit was assessed by calculating a X^2 value for the data (Karlsson and Failt, 1997). A lower X^2 value was taken as an indication of a better fit of the data. […] Scatchard plots were generated using BIAevaluation 3.0 software (Biacore).
# As previous studies have shown that Aβ can interact directly with lipid membranes, we examined the possibility that the toxic effects of Aβ were due to a direct interaction with the vascular SMC membrane. To study the binding of Aβ to lipids, biosensor technology was employed.
# [4] = Congo Red assay of amyloid fibrils; assay type: physicochemical; details: peptide aged 5 days, 10 μM; FIG. 2
# Procedure: as §6
# The concentration of amyloid fibrils was measured using the assay of Klunk et al. (1999). Aβ peptides were mixed with Congo red (CR) in 0.02 M sodium phosphate buffer, pH 6.8. The final concentration of peptide and CR was 10 μM. Solutions of CR alone were also prepared in 0.02 M sodium phosphate buffer, pH 6.8. The mixture was vortexed briefly and then incubated at room temperature for 15 min. The absorbances at 403 and 541 nm were measured using a BioRad SmartSpec 3000 spectrophotometer. Background absorbance values of buffer alone were subtracted from the values obtained from each sample. The concentration of Aβ fibrils in each preparation was then determined using the formula
# All preparations were prepared in triplicate, and the assay was conducted independently three times, with similar results being obtained in each experiment.
# vascular SMCs [5] = assay: Effect of lovastatin pretreatment on Aβ toxicity in vascular SMCs (MTS assay); details: lovastatin pretreatment 72 h
# [6] = system: vascular SMC membrane cholesterol; assay: Cholesterol and protein content of plasma membrane fraction from lovastatin-treated vascular SMCs; assay type: cell-based, rat; details: cells pretreated with lovastatin 72 h; Amplex Red cholesterol assay
# Procedure: as §1
# as §2, with “The suspension was again centrifuged, and the first and second supernatant fractions combined, then centrifuged at 40,000 rpm for 2 h (Beckman L8-M Ultracentrifuge, 70 Ti rotor, no brake) and the resulting crude plasma membrane fraction resuspended in 1.0 ml of 0.02 M sodium phosphate buffer, pH 7.4.” left out, “standard. […]” for “standard.”
# [7] = membranes from lovastatin-treated vascular SMCs (72 h)
# [8] = membranes from untreated vascular SMCs
Compound,"KA1 (equilibrium association constant for high affinity binding component) [1, 7]","KA2 (equilibrium association constant of low-affinity binding component) [1, 7]","KA1 (equilibrium association constant for high affinity binding component) [1, 8]","KA2 (equilibrium association constant of low-affinity binding component) [1, 8]",binding to plasma membrane-enriched fraction from vascular smooth muscle cells ([1]; peptide 10 μM),toxicity against vascular SMCs (MTS assay) (vascular SMCs [2]),KA1 (equilibrium association constant for high affinity binding component) ([3]; Cholesterol: PL ratio 30 : 70),KA2 (equilibrium association constant of low-affinity binding component) ([3]; Cholesterol: PL ratio 30 : 70),KA2 (equilibrium association constant of low-affinity binding component) ([3]; Cholesterol: PL ratio 60 : 40),KA1 (equilibrium association constant for high affinity binding component) ([3]; Cholesterol: PL ratio 80 : 20),KA2 (equilibrium association constant of low-affinity binding component) ([3]; Cholesterol: PL ratio 80 : 20),toxicity against vascular SMCs after aging the peptide (MTS assay) (vascular SMCs [2]),extent of binding to the synthetic lipid mixture [3],further results
"Aβ1-40: β-amyloid protein peptide, residues 1-40, made by manual solid-phase Boc synthesis",4.1 × 10^4,3.6 × 10^4,8.3 × 10^5,5.9 × 10^5,bound to the membrane fraction,significant toxicity,1.1 × 10^5,5.2 × 10^4,1.3 × 10^6,4.8 × 10^7,1.0 × 10^7,,,total amount of binding to SMC membrane fraction relative to synthetic lipid mixture containing 60% cholesterol and 40% phospholipid ([1]; peptide 10 μM): approximately 10%; KA1 (equilibrium association constant for high affinity binding component) ([3]; Cholesterol: PL ratio 60 : 40): 4.0 × 10^7
"Aβ1-28: N-terminal Aβ fragment, residues 1-28",,,,,,less toxic,,,,,,still toxic; also recorded: significantly less toxic,,fibrillar species (Congo red binding assay) [4]: failed to form fibrils; also recorded: formed fewer fibrillar species
"Aβ17-42: C-terminal Aβ fragment, residues 17-42 (LVFFAEDVGSNKGAIIGLMVGGVVIA; Amyloid-beta protein 42; UniProt P05067 688-713, looked up, fragment)",,,,,,significant toxicity,,,,,,,bound more strongly,
"CC[C@H](C)C(=O)O[C@H]1C[C@@H](C)C=C2C=C[C@H](C)[C@H](CC[C@@H]3C[C@@H](O)CC(=O)O3)[C@H]21 [lovastatin, Lovastatin]",,,,,,,,,,,,,,"Aβ1-40 and Aβ1-42 binding to plasma membrane fraction of lovastatin-treated cells, relative to that without lovastatin pretreatment ([1]; cells pretreated with lovastatin 72 h, unaged Aβ 10 μM, RU20): approximately 25%; effect of lovastatin alone on the ability of vascular SMCs to reduce MTS (vascular SMCs [5]; no Aβ): little effect; reduction of the Aβ1-40 and Aβ1-42-induced decrease in MTS reduction in lovastatin-treated cells versus controls (vascular SMCs [5]; then unaged Aβ 10 μM 24 h, FIG. 7): 25-40%; cholesterol content of the membrane fraction relative to untreated cells [6]: approximately 55%"
"Aβ29-42: C-terminal Aβ fragment, residues 29-42 (GAIIGLMVGGVVIA; Amyloid-beta protein 42; UniProt P05067 700-713, looked up, fragment)",,,,,,significant toxicity,,,,,,,bound more strongly,
"Aβ1-42: β-amyloid protein peptide, residues 1-42, made by manual solid-phase Boc synthesis",9.3 × 10^4,5.3 × 10^4,1.8 × 10^6,9.6 × 10^5,bound to the membrane fraction,significant toxicity,1.8 × 10^5,6.9 × 10^4,4.8 × 10^7,2.7 × 10^8,6.9 × 10^7,significant increase in cytotoxicity,,

# Source: patent US20030235872A1, “Assay method” (priority 2002, published 2003)
